Source: ChEMBL document CHEMBL5661943, “ASAP - In vitro antiviral effect” (2024)

Experiments:
Zika virus = assay: Functional CPE-based assay to measure dose dependent changes in antiviral-drug inhibitory efficacy against Zika virus MR766 in Vero E6 miRFP670 cells. Cells are treated with antiviral candidates that are serially diluted. EC50 is reported via analysis of MTS assay as a readout of CPE. The assay has been performed by KU Leuven.; format: organism-based, Chlorocebus sabaeus, Vero C1008; conditions: Zika virus
dengue virus type 2 = assay: Functional assay to measure dose dependent changes in antiviral-drug inhibitory efficacy against Dengue virus type 2 New Guinea C in Vero E6 miRFP670 cells (cotreated with P-gp inhibitor, CP100356). Cells are treated with antiviral candidates that are serially diluted, following infection, cells are fixed. EC50 is reported via analysis of fluorescence intensity using high-content imager. The …; format: organism-based, Chlorocebus sabaeus, Vero C1008; conditions: Dengue virus

Question: What does the source list for `NCc1cccc(NC(=O)[C@H](NC(=O)OCc2ccccc2)c2ccc(Br)c(Cl)c2)c1`?
Answer: EC50 (Zika virus; Vero C1008): > 50 µM; EC90 (Zika virus; Vero C1008, Baseline response 0 %, Hill slope 4.111, Maximum measured 16.618 %, Maximum response 100 %, Minimum measured -5.242 %, R squared 0.822): > 50 µM; EC50 (dengue virus type 2; Vero C1008): 27.9 µM; EC90 (dengue virus type 2; Vero C1008, Baseline response 0 %, Hill slope -1.252, Maximum measured 107.5 %, Maximum response 100 %, Minimum measured 22.965 %, P-gp concentration 500 nM, R squared 0.543, P-gp inhibitor CP100356): > 50 µM

Question: Which results are given for `COc1cccc(-c2ccc([C@@H](NC(=O)OCc3ccccc3)C(=O)Nc3cccc(CN)c3)cc2)c1`?
Answer: EC50 (Zika virus; Vero C1008): > 50 µM; EC90 (Zika virus; Vero C1008, Maximum measured 5.224 %, Minimum measured -9.76 %): > 50 µM; EC50 (dengue virus type 2; Vero C1008): 11.3 µM; EC90 (dengue virus type 2; Vero C1008): 13 µM

Question: What does the source list for `CCOCCNC(=O)c1cc(Cl)ccc1NS(=O)(=O)c1ccc(Oc2ccccc2Cl)cc1`?
Answer: EC50 (Zika virus; Vero C1008): > 50 µM; EC90 (Zika virus; Vero C1008, Maximum measured 1.013 %, Minimum measured -2.996 %): > 50 µM; EC50 (dengue virus type 2; Vero C1008): 7.26 µM; EC90 (dengue virus type 2; Vero C1008, Baseline response 0 %, EC90 CI (lower) 5.297 uM, EC90 CI (upper) 7.186 uM, Hill slope -13.477, Maximum measured 106.241 %, Maximum response 100 %, Minimum measured 0.021 %, P-gp concentration 500 nM, R squared 0.993, P-gp inhibitor CP100356): 8.55 µM

Question: With `COc1cc(-c2cc(Cl)cc(NC(=O)OCc3ccccc3)c2)c(OC)cc1CC(=O)O` as the molecule, how does the EC50 (Zika virus; Vero C1008) read?
Answer: Its EC50 is > 50 µM.

Question: And the EC90 (Zika virus; Vero C1008, Baseline response 0 %, Hill slope 0.25, Maximum measured 21.22 %, Maximum response 100 %, Minimum measured 1.079 %, R squared 0.113)?
Answer: Its EC90 is > 50 µM.

Question: What does the source list for `CCNC(=O)Nc1cc(Cl)cc(C(=O)Nc2cccc(CN)c2)c1`?
Answer: EC50 (Zika virus; Vero C1008): > 50 µM; EC90 (Zika virus; Vero C1008, Baseline response 0 %, Hill slope -0.392, Maximum measured 2.06 %, Maximum response 100 %, Minimum measured -2.343 %, R squared 0.131): > 50 µM; EC50 (dengue virus type 2; Vero C1008): > 50 µM; EC90 (dengue virus type 2; Vero C1008, Maximum measured 108.516 %, Minimum measured 107.498 %, P-gp concentration 500 nM, P-gp inhibitor CP100356): > 50 µM

Question: How did the EC50 (Zika virus; Vero C1008) turn out when `O=C(O)c1cc(Cl)c(F)cc1S(=O)(=O)Nc1ccc(Oc2ccccc2Cl)cc1` was run?
Answer: The EC50 was 39.6 µM.

Question: And the EC90 (Zika virus; Vero C1008, Baseline response 0 %, EC90 CI (lower) 44.524 uM, EC90 CI (upper) 54.445 uM, Hill slope 10.107, Maximum measured 91.318 %, Maximum response 100 %, Minimum measured 0.941 %, R squared 0.971)?
Answer: Its EC90 is 49.2 µM.

Question: And the EC50 (dengue virus type 2; Vero C1008)?
Answer: The EC50 was 25.1 µM.

Question: What about the EC90 (dengue virus type 2; Vero C1008, Baseline response 0 %, Hill slope -22.82, Maximum measured 108.329 %, Maximum response 100 %, Minimum measured 0.118 %, P-gp concentration 500 nM, R squared 0.881, P-gp inhibitor CP100356) of the same molecule?
Answer: The EC90 was 27.7 µM.

Question: How did the EC50 (Zika virus; Vero C1008) turn out when `NCc1cccc(NC(=O)[C@@H](NC(=O)OCc2ccccc2)c2ccc(-c3cc4cccnc4s3)cc2)c1` was run?
Answer: The EC50 was > 50 µM.

Question: And the EC90 (Zika virus; Vero C1008, Baseline response 0 %, Hill slope 2.61, Maximum measured 41.685 %, Maximum response 100 %, Minimum measured -5.482 %, R squared 0.949)?
Answer: The EC90 was > 50 µM.

Question: What about the EC50 (dengue virus type 2; Vero C1008) of the same molecule?
Answer: Its EC50 is > 50 µM.

Question: And the EC90 (dengue virus type 2; Vero C1008, Baseline response 0 %, Hill slope -1.813, Maximum measured 108.419 %, Maximum response 100 %, Minimum measured 62.17 %, P-gp concentration 500 nM, R squared 0.703, P-gp inhibitor CP100356)?
Answer: The EC90 was > 50 µM.

Question: Which results are given for `O=C(Nc1cc(Cl)cc(-c2cccc3c(C(=O)O)cccc23)c1)OCc1ccccc1`?
Answer: EC50 (Zika virus; Vero C1008): > 50 µM; EC90 (Zika virus; Vero C1008, Maximum measured -0.778 %, Minimum measured -5.402 %): > 50 µM

Question: How did the EC50 (Zika virus; Vero C1008) turn out when `NCc1cccc(NC(=O)[C@H](NC(=O)OCc2ccccc2)C2CCC(c3ccccc3)CC2)c1` (stereo partly specified) was run?
Answer: The EC50 was > 50 µM.

Question: And the EC90 (Zika virus; Vero C1008, Baseline response 0 %, Hill slope 12.54, Maximum measured 11.506 %, Maximum response 100 %, Minimum measured -10.271 %, R squared 0.094)?
Answer: The EC90 was > 50 µM.

Question: What about the EC50 (dengue virus type 2; Vero C1008) of the same molecule?
Answer: Its EC50 is 6.69 µM.

Question: What about the EC90 (dengue virus type 2; Vero C1008, Baseline response 0 %, EC90 CI (lower) 1.121 uM, EC90 CI (upper) 23.089 uM, Hill slope -8.04, Maximum measured 108.249 %, Maximum response 100 %, Minimum measured 2.62 %, P-gp concentration 500 nM, R squared 0.836, P-gp inhibitor CP100356) of the same molecule?
Answer: Its EC90 is 8.79 µM.

Question: How did the EC50 (Zika virus; Vero C1008) turn out when `NCc1cc(Cl)cc(C(=O)Nc2ccc3c(c2)CNC3)c1` was run?
Answer: Its EC50 is > 50 µM.

Question: And the EC90 (Zika virus; Vero C1008, Maximum measured 0.38 %, Minimum measured -0.268 %)?
Answer: The EC90 was > 50 µM.

Question: And the EC50 (dengue virus type 2; Vero C1008)?
Answer: The EC50 was > 50 µM.

Question: What about the EC90 (dengue virus type 2; Vero C1008, Maximum measured 110.007 %, Minimum measured 106.028 %, P-gp concentration 500 nM, P-gp inhibitor CP100356) of the same molecule?
Answer: Its EC90 is > 50 µM.
